Results: PMC12386367, “Importin α3 Is Tolerant to Nuclear Localization Signal Chirality” (International Journal of Molecular Sciences, 2025)
Like-named read-outs stand apart in the source and are kept apart here. Non-standard residues stand in square brackets, D forms with d. Residues, ends and D or L forms follow the SMILES beside them. d(pT) = C[C@H](OP(=O)(O)O)[C@@H](N)C(=O)O

Columns and labels:
[1] = target: T1, Impα3 (Homo sapiens, UniProt O00629); assay: Biolayer interferometry (BLI) binding to Impα3; conditions: peptide 1–10 μM, 25 °C; for kon: BLItz, Impα3 immobilized via His-tag (0.25 μM), 10 × kinetics buffer, error from pseudo-first order fit, at least two repeats; for koff: Impα3 immobilized via His-tag, error from pseudo-first order fit (Equation 5)
T1 construct: Human importin α3 isoform (residues 1–521); made in house
T1 sequence (O00629 1-521): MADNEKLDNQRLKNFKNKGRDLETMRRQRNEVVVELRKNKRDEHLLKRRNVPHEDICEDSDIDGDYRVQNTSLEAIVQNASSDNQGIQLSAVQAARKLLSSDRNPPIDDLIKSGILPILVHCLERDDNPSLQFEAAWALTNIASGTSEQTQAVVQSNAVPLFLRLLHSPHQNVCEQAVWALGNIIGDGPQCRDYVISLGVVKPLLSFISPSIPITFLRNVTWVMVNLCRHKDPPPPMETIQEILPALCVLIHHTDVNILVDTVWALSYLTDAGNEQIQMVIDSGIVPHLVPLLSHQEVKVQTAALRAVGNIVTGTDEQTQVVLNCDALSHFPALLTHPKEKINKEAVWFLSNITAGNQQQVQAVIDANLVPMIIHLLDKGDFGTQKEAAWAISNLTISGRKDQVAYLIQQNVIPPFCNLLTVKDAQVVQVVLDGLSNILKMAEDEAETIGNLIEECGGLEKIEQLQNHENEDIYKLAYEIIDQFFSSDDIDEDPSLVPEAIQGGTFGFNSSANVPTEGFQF
Experimental: (§1) The association (kon) and dissociation (koff) rate constants of the binding of D-NLS peptides to either Impα3 or ∆Impα3 were determined by using a BLItz system (ForteBio, Pall, Barcelona, Spain). The buffer used in the experiments was that recommended by the manufacturer. […] The peptide concentrations were in a range from 1 to 10 μM during the association step. The general scheme of the protein association/dissociation reactions in the BLItz system for the D-NLS peptides was as follows: 30 s of initial baseline acquisition with the 10 × kinetics buffer (provided by the manufacturer); 120 s of loading either Impα3 and ∆Impα3 into the biosensor; 30 s of baseline acquisition with the 10 × kinetics buffer; 120 s of association of each peptide to the biosensor (which had been previously loaded with the importin species); and 120 s of monitoring of the dissociation of each peptide from the biosensor. All experiments were carried out at 25 °C.
(§2) Fittings of the BLI sensorgrams was carried out by using KaleidaGraph, as previously described. The interferometry response during the association step, R(t) (measured in response units, RU), and the binding rate, dR(t)/dt, could be used to evaluate the kinetics of the formation of the complex between Impα3/∆Impα3 and each D-NLS, according to:(2) dR/dt=konD-NLSRmax−Rt−koffR(t) where Rmax is proportional to the total concentration of biosensor-bound importin species; and [D-NLS] represents the concentration of the corresponding D-NLS peptide.
(§3) In Equation (2), R(t) is given by:(3) Rt= Req−Reqe^(−kobs t−t0) where Req is the steady-state (or equilibrium) response obtained at infinite time, when dR(t)/dt = 0, and t0 = 180 s is the time at which the association step between biosensor-immobilized Impα3/∆Impα3 and D-NLS in the solution started. We fitted the experimentally obtained R(t) under any condition as:(4) Rt= Req−Reqe^−kobs t−t0−R’eq(t−t0) where R^′eq was included to consider the lineal drift observed at longer times.
(§4) The dissociation process was always fitted to a single exponential, with R(t) given by:(6) Rt=R1 e^(−kofft−t0)−R^″eq(t−t0) where t0 = 300 is the time at which the dissociation of the D-NLS from the biosensor-bound Impα3/∆Impα3 started in our experimental set-up, R1 is the response level when dissociation starts, and the parameter R^″eq considers the linear drift observed at longer times.
(§5) The experiments were repeated at least twice for each peptide with each importin species.

[2] = target: T2, ∆Impα3 (Homo sapiens, UniProt O00629); assay: Biolayer interferometry (BLI) binding to ∆Impα3; conditions: peptide 1–10 μM, 25 °C; for kon: BLItz, ∆Impα3 immobilized via His-tag (0.25 μM), 10 × kinetics buffer, error from pseudo-first order fit, at least two repeats; for koff: ∆Impα3 immobilized via His-tag, error from pseudo-first order fit (Equation 5)
T2 construct: IBB-depleted species of Impα3 (residues 64–521 of the intact protein); made in house
T2 sequence (O00629 64-521): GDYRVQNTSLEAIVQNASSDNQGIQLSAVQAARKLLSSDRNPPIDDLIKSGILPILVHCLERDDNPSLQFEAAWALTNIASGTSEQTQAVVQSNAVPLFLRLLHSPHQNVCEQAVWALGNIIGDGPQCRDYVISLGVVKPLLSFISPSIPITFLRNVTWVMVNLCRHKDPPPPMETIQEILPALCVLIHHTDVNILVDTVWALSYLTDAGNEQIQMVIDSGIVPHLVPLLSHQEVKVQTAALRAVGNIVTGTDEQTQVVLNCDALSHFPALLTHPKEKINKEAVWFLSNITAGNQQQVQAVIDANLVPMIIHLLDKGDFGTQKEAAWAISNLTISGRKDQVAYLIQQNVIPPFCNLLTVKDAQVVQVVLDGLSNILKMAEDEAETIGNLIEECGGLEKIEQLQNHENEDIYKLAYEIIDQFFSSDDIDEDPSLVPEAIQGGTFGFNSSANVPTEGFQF
Experimental: as §1, §2, §3, §4, §5

[3] = Translational diffusion NMR (DOSY) of NLS peptides; assay type: physicochemical; conditions: ~100 μM peptide; for Diffusion coefficient D: 50 mM deuterated Tris pH 7.2, 100% D2O, 10 °C
Source text: For the four peptides, we measured the experimental value of D for dioxane ranging from (1.2 ± 0.1) × 10^−5 to (1.05 ± 0.02) × 10^−5 cm^2 s^−1 in each solution containing the corresponding peptide; we assumed a hydrodynamic radius of 2.12 Å for dioxane (Table 1) under any condition. […] Furthermore, the values of D were similar for the D- and L-peptides, and the latter were already being described as disordered. Thus, we can conclude that the four D-peptides were monomeric and disordered, like the L-form counterparts, and, then, there was no difference in the hydrodynamic properties of the peptides by changing the enantiomeric nature of the residues.
The NMR spectra were acquired at 10 °C on a Bruker Avance III spectrometer (Bruker GmbH, Mannheim, Germany), equipped with a triple-resonance probe and z-pulse field gradients. All NMR experiments with D-NLS peptides were carried out in 50 mM deuterated Tris buffer (not corrected for isotope effects), pH 7.2. Spectra were calibrated with TSP, by considering pH-dependent changes in its chemical shifts; probe temperature was calibrated with pure methanol.
The typical D-NLS peptide concentrations in DOSY experiments were ~100 μM, and 128 scans were acquired, in which the gradient strength was varied linearly in sixteen steps, between 2 and 95% of the total power of the gradient coil. Measurements of the translational self-diffusion coefficient, D, were performed with the pulsed-gradient spin-echo sequence in the presence of 100% D2O. Details on the experimental conditions and fitting of the resulting curves have been described elsewhere. Gradient strength was calibrated by using the value of D for the residual proton water signal in a sample containing 100% D2O, in a 5 mm tube [23]. Gradient length was 2.5 ms; the time between the two pulse gradients in the sequence was 250 ms; and the recovery delay between the bipolar gradients was 100 μs. The signals from methyl groups between 0.8 and 1.0 ppm were used for peak integration, for all the D-NLS peptides. A final concentration of 1% of dioxane, which was assumed to have a hydrodynamic radius Rh of 2.12 Å [23], was added to the solution of each peptide.

[4] = target: T3, Human importin α3 isoform (residues 1–521) (human, UniProt O00629 1-521); assay: BLI; His-tagged Impα3 or ∆Impα3 immobilised on His-tag biosensors at 0.25 μM; peptides 1 to 10 μM; BLItz system, manufacturer's 10x kinetics buffer; 25 °C; kon and koff from pseudo-first-order plots; apparent Kd = koff/kon, two-state process assumed; conditions: both partners purified
T3 construct: human importin α3 (Impα3, KPNA4), residues 1-521, intact protein with the N-terminal IBB domain; The materials list Ni2+-resin, ampicillin and IPTG, so expression in E. coli is surmised; also called Impα3; KPNA4
T3 sequence (looked up): T1 sequence (O00629 1-521)

[5] = target: T4, IBB-depleted species of Impα3 (residues 64–521 of the intact protein) (human, UniProt O00629 64-521); assay: as above; conditions: both partners purified
T4 construct: PDB 5XZX was used only as the model of ∆Impα3 for docking; its limits may differ from 64-521; also called ΔImpα3; truncated importin species
T4 sequence (looked up): T2 sequence (O00629 64-521)

## CC(=O)N[C@H](Cc1ccc(O)cc1)C(=O)N[C@@H](C(=O)N[C@H](CC(N)=O)C(=O)N[C@H](CCCNC(=N)N)C(=O)N1CCC[C@@H]1C(=O)N[C@H](CO)C(=O)N1CCC[C@@H]1C(=O)NCC(=O)NCC(=O)N[C@H](Cc1c[nH]cn1)C(=O)N[C@H](CCC(=O)O)C(=O)N[C@H](CCCNC(=N)N)C(=O)N[C@H](CCCCN)C(=O)N[C@H](CC(C)C)C(=O)N[C@@H](C(=O)N[C@@H](C(=O)N[C@H](CCCCN)C(=O)N[C@H](CC(C)C)C(=O)N[C@H](CCC(N)=O)C(=O)N[C@H](CC(N)=O)C(=O)N[C@H](CO)C(=O)N[C@H](CCC(=O)O)C(N)=O)[C@H](C)OP(=O)(O)O)C(C)C)[C@H](C)O [D-NLS-NUPR1phospho] (Ac-[dY][dT][dN][dR][dP][dS][dP]GG[dH][dE][dR][dK][dL][dV][d(pT)][dK][dL][dQ][dN][dS][dE]-NH2)
[1]; read-out: kon
  kon: 10000 ± 3000 M⁻¹ s⁻¹
[1]
  koff: 0.13 ± 0.02 s⁻¹
[2]; read-out: kon
  kon: 6000 ± 1000 M⁻¹ s⁻¹
[2]
  koff: 0.05 ± 0.01 s⁻¹
[3]
  Diffusion coefficient D: 2.2 ± 0.2 cm^2 s^−1 × 10^6

## CC[C@@H](C)[C@@H](NC(=O)[C@@H](CCCCN)NC(=O)[C@@H](CCC(N)=O)NC(=O)[C@@H](CCC(N)=O)NC(=O)[C@@H](CCCCN)NC(=O)[C@@H](CCCCN)NC(=O)[C@@H](CCCCN)NC(=O)[C@@H](CCCCN)NC(=O)[C@H](NC(=O)CNC(=O)[C@@H](CCC(=O)O)NC(=O)[C@@H](Cc1ccccc1)NC(=O)[C@@H](CC(C)C)NC(=O)[C@@H](CC(C)C)NC(=O)[C@@H](C)NC(=O)[C@@H](CCC(=O)O)NC(=O)CNC(=O)[C@@H](Cc1c[nH]cn1)NC(=O)CNC(=O)[C@@H](CCC(=O)O)NC(=O)[C@@H](CC(N)=O)NC(=O)[C@@H](CCC(N)=O)NC(=O)[C@@H](CCC(N)=O)NC(=O)[C@@H](CCC(=O)O)NC(=O)[C@@H](CCC(N)=O)NC(=O)[C@@H](Cc1ccccc1)NC(=O)[C@@H](CC(C)C)NC(=O)[C@@H](CCCCN)NC(C)=O)[C@H](C)CC)C(N)=O [D-NLS-PADI] (Ac-[dK][dL][dF][dQ][dE][dQ][dQ][dN][dE]G[dH]G[dE][dA][dL][dL][dF][dE]G[dI][dK][dK][dK][dK][dQ][dQ][dK][dI]-NH2)
[1]; read-out: kon
  kon: 45000 ± 20000 M⁻¹ s⁻¹
[1]
  koff: 0.6 ± 0.1 s⁻¹
[2]; read-out: kon
  kon: 60000 ± 10000 M⁻¹ s⁻¹
[2]
  koff: 0.37 ± 0.05 s⁻¹
[3]
  Diffusion coefficient D: 1.0 ± 0.1 cm^2 s^−1 × 10^6

## YT^54NRPSPGGHERKLVTKLQNSE^74 [D-NLS-NUPR1, D-enantiomeric, isolated NLS region of NUPR1 (residues 54–74 of the intact protein)]
[1]
  kon: 50000 ± 10000 M⁻¹ s⁻¹
[2]
  kon: 110000 ± 20000 M⁻¹ s⁻¹
[3]; D-peptides, by comparison with D of dioxane (1%, Rh 2.12 Å), 50 mM deuterated Tris pH 7.2, 10 °C
  Hydrodynamic radius Rh: 9 ± 1 Å
[3]
  Diffusion coefficient D: 1.78 ± 0.08 cm^2 s^−1 × 10^6

B1: D-enantiomeric, isolated NLS region of NUPR1 (residues 54–74 of the intact protein) (peptide)
peptide: Ac-[dY][dT][dN][dR][dP][dS][dP]GG[dH][dE][dR][dK][dL][dV][dT][dK][dL][dQ][dN][dS][dE]-NH2
notes: NLS region of NUPR1 (nuclear protein 1), residues 54-74 of the intact protein, made of D-amino acids; also called D-NLS-NUPR1; wild-type D-NLS-NUPR1; source: synthetic peptide (Genscript, purity higher than 95%)
[4]
  kon: 50000 M⁻¹ s⁻¹
[5]
  kon: 110000 M⁻¹ s⁻¹

B2: D-enantiomeric, isolated NLS region of NUPR1 with phosphorylated Thr68 (peptide)
peptide: Ac-[dY][dT][dN][dR][dP][dS][dP]GG[dH][dE][dR][dK][dL][dV][d(pT)][dK][dL][dQ][dN][dS][dE]-NH2
SMILES: CC(=O)N[C@H](Cc1ccc(O)cc1)C(=O)N[C@@H](C(=O)N[C@H](CC(N)=O)C(=O)N[C@H](CCCNC(=N)N)C(=O)N1CCC[C@@H]1C(=O)N[C@H](CO)C(=O)N1CCC[C@@H]1C(=O)NCC(=O)NCC(=O)N[C@H](Cc1c[nH]cn1)C(=O)N[C@H](CCC(=O)O)C(=O)N[C@H](CCCNC(=N)N)C(=O)N[C@H](CCCCN)C(=O)N[C@H](CC(C)C)C(=O)N[C@@H](C(=O)N[C@@H](C(=O)N[C@H](CCCCN)C(=O)N[C@H](CC(C)C)C(=O)N[C@H](CCC(N)=O)C(=O)N[C@H](CC(N)=O)C(=O)N[C@H](CO)C(=O)N[C@H](CCC(=O)O)C(N)=O)[C@H](C)OP(=O)(O)O)C(C)C)[C@H](C)O
notes: NLS region of NUPR1 (nuclear protein 1), residues 54-74 of the intact protein, made of D-amino acids, Thr68 phosphorylated; Mirror-image (all-D) peptide; also called D-NLS-NUPR1phospho; source: synthetic peptide (Genscript, purity higher than 95%)
[4]
  Kd: 13 µM
  koff: 0.13 s⁻¹
  kon: 10000 M⁻¹ s⁻¹
[5]
  Kd: 8 µM
  koff: 0.05 s⁻¹
  kon: 6000 M⁻¹ s⁻¹
